{
  "source": "ChEMBL document CHEMBL5620372",
  "about": "“Pharmacological inhibition of ferroptosis as a therapeutic target for sepsis-associated organ damage” (Eur J Med Chem, 2023)",
  "key": {"[1]": {"assay": "Oral bioavailability in human", "format": "ADME, organism-based", "details": "in vivo"}, "[2]": {"assay": "Half life in human plasma", "format": "ADME, cell-free"}, "[3]": {"assay": "Cmax in human plasma", "format": "ADME, cell-free"}, "[4]": {"assay": "Oral bioavailability in human at 2 mg/kg", "format": "ADME, organism-based", "details": "in vivo"}, "[5]": {"assay": "Drug recovery in rat feces at 10 mg/kg, IG measured after 36 hrs", "format": "ADME, organism-based", "details": "faeces, po, read-out: Drug recovery"}, "[6]": {"assay": "Drug recovery in rat urine at 10 mg/kg, IG measured after 36 hrs", "format": "ADME, organism-based", "details": "po, read-out: Drug recovery"}},
  "data": [
    {"compound": "CC(=O)Nc1ccc(O)cc1", "note": "[ACETAMINOPHEN]", "values": [
      {"measurement": "bioavailability", "setting": "[1]", "value": 86, "unit": "%"},
      {"measurement": "half-life", "setting": "[2]", "value": 12, "unit": "min"}
    ]},
    {"compound": "O=c1c(-c2ccc(O)cc2)coc2c([C@@H]3O[C@H](CO)[C@@H](O)[C@H](O)[C@H]3O)c(O)ccc12", "note": "[PUERARIN]", "values": [
      {"measurement": "Cmax", "setting": "[3]", "value": 140, "unit": "ng/mL"},
      {"measurement": "bioavailability", "setting": "[4]", "value": 7, "unit": "%"}
    ]},
    {"compound": "Oc1ccc(/C=C/c2cc(O)cc(O)c2)cc1", "note": "[RESVERATROL]", "values": [
      {"measurement": "dose excreted at 36 h", "setting": "[5]", "value": 0.07, "unit": "%"},
      {"measurement": "dose excreted at 36 h", "setting": "[6]", "value": 0.15, "unit": "%"}
    ]}
  ]
}
